Results from patent USRE36477E, “Benzoic acid derivatives and process for preparing the same” (Taiho Pharmaceutical Co., Ltd., priority 1988, dated 1999).
Where two headings read alike, the source gives them in different places.

Tested on: human acute promyelocytic leukemia cells (HL-60)
Experiment: Differentiation of human acute promyelocytic leukemia cells (HL-60), morphological changes of nuclei and NBT reduction
Format: cell-based
Conditions: for EC50: Homo sapiens, read-out: ED50 (effective doses which cause differentiation of 50% of the cultured cells)
Experimental: The test of the activities of the compounds of this invention has been conducted by measuring the concentration required for inducing the differentiation of human acute promyelocytic leukemia cells (HL 60), according to the methods described in detail hereinafter.
The HL-60 cells are cultured in plastic flasks in RPMI 1640 medium supplemented with 5% heat-inactivated fetal calf serum and antibiotics (penicillin G and streptomycin). The cells (3×10^4 /ml) are cultured with a compound of the present invention for 4 days. The cells are fixed and stained with Wright-Giemsa to examine the morphological changes of the nuclei. […] The biochemical activity of cells treated with the compound is measured as follows:
The cells after 5 days incubation are centrifuged and diluted with RPMI 1640 medium, supplemented with 5% fetal calf serum, to provide a definite number of the cells. To the diluted cell suspension are then added 200 ng/ml of 12-o-tetradodecanoylphorbol-13-acetate (TPA) and the resulting culture medium is then incubated for 20 minutes at 37° C. in the presence of 0.1% of NBT. Thus, the mature differentiated cells containing blue-black formazan are counted by microscope, so that the ratio of the cells having the ability to reduce NBT, to total cells, can be calculated.
As a positive control for comparison, the known compounds represented by the formula (II) and trans retinoic acid were used.

EC50 (96 h, HL-60 cells, Table 1) | Structure (SMILES) | EC50 (HL-60, 96 h) | morphological changes of the nuclei (differentiation) (HL-60 cells, 4 days culture, Wright-Giemsa stain)
– | C[Si](C)(C)c1cccc(NC(=O)c2ccc(C(=O)O)cc2)c1 | 80 nM | –
– | C[Si](C)(C)c1cc(C(=O)/C=C/c2ccc(C(=O)O)cc2)cc([Si](C)(C)C)c1 | 0.2 nM | –
– | C[Si](C)(C)c1cccc(/C=C/c2ccc(C(=O)O)cc2)c1 | 60 nM | –
100 nM | CC(C)(C)c1cccc(C(=O)/C=C/c2ccc(C(=O)O)cc2)c1 | – | –
1000 nM | CC(C)(C)c1cccc(NC(=O)c2ccc(C(=O)O)cc2)c1 | – | –
0.4 nM | CC(C)(C)c1cc(C(=O)/C=C/c2ccc(C(=O)O)cc2)cc(C(C)(C)C)c1 | – | –
– | CC1=C(/C=C/C(C)=C/C=C/C(C)=C/C(=O)O)C(C)(C)CCC1 [retinoic acid] | 2 nM | differentiated to mature granulocytes (myelocytes, metamyelocytes and neutrophiles)

Structure (SMILES) | EC50 (96 h, HL-60 cells, Table 1) | EC50 (HL-60, 96 h) | morphological changes of the nuclei (differentiation) (HL-60 cells, 4 days culture, Wright-Giemsa stain)
C[Si](C)(C)c1cc(NC(=O)c2ccc(C(=O)O)cc2)cc([Si](C)(C)C)c1 | 20 nM | – | –
